# Experimental data from the NIST ThermoML archive (doi:10.1016/j.fluid.2004.11.006).
# ± gives the expanded uncertainty stated by the source.
# How the values were obtained:
# [1] = Solid-liquid equilibrium temperature; conditions: 101.3 kPa
# [2] = Molar enthalpy of transition or fusion; conditions: Crystal; DSC
smiles,measurement,setting,value
"C1COCCOCCOCCOCCOCCO1 [1,4,7,10,13,16-hexaoxacyclooctadecane]",Solid-liquid equilibrium temperature,[1]; Crystal 1,311.76 ± 0.8 K
"C1COCCO1 [1,4-dioxane]",Solid-liquid equilibrium temperature,[1]; Crystal,285.08 ± 0.4 K
CN1CCCC1=O [N-methylpyrrolidone],Molar enthalpy of transition or fusion,[2],2.64 ± 0.0908 kcal/mol
same,Solid-liquid equilibrium temperature,[1]; Crystal,249.68 ± 0.4 K
